Results taken from patent US20250326755A1, “CYCLIC QUATERNARY AMMONIUM SALT COMPOUND, AND PREPARATION METHOD THEREFOR AND USE THEREOF” (YICHANG HUMANWELL PHARMACEUTICAL CO., LTD., priority 2022, published 2025).
Like-named read-outs stand apart in the source and are kept apart here.

Columns and labels:
[1] = tested on: sciatic nerve of the rat; assay type: in vivo, SD rats
Procedure: The experimental methods described in the following test examples were standard procedures unless otherwise specified. All experimental animals used in the following test examples were SD rats purchased from Hunan Slac Jingda Experimental Animal Co., Ltd. Other test materials, unless stated otherwise, were purchased from conventional biochemical reagent suppliers.
The compounds listed in Table 1 and levobupivacaine hydrochloride (positive control) were administered to three groups of rats fully acclimated to the experimental environment, with one rat per group.
Solution Preparation: 2 mg/ml Levobupivacaine Hydrochloride Injection: 2.670 ml of 7.5 mg/ml levobupivacaine hydrochloride injection (Batch No. 92S0702) was pipetted into a 10 ml volumetric flask. 0.9% NaCl solution was added until the meniscus was level with the calibration line, and the solution was inverted and mixed thoroughly, to prepare 2 mg/ml levobupivacaine hydrochloride injection. 2 mg/ml Example Compound Solution: 6.6 mg of the example compound was accurately weighed and dissolved in 3.3 ml of 0.9% NaCl solution to prepare a 2 mg/ml example compound solution.
Both the positive control and the example compound were administered to each rat at 2 mg/ml, with an administration volume of 5 ml/kg, in a single injection near the sciatic nerve of the rat. After the administration, the rat was placed on a preheated hot plate (50±0.1° C.) of an intelligent hot plate instrument. […] The maximum thermal latency was controlled at 60 s. […] Any urine or feces on the hot plate was promptly cleaned and dried before subsequent tests.
Thermal latency results were expressed as the maximum proportional effect (MPE), calculated using the following formula.
Wherein: B represented the basal thermal latency of the rats; P was the maximum thermal latency C was the observed thermal latency at the detection time point.
Measurements were considered invalid if the MPE was less than 50% of the maximum proportional effect. If two consecutive measurements yielded an MPE of less than […], the experiment was terminated.

[2] = tested on: rat subcutaneous infiltration model; assay: Local anesthetic effect by subcutaneous infiltration, Von Frey needle stimulation of back skin; assay type: in vivo, SD rats; settings: 1 mg/ml, 0.5 mL subcutaneous injection on the back, 10 rats
Procedure: After shaving and disinfecting the backs of SD rats (half male and half female) weighing 190-210 grams, a circle with a diameter of approximately 1.5 cm was drawn on one side of the exposed skin. 0.5 mL of a solution containing the drug was subcutaneously injected into the skin in the center. The solution, using physiological saline as the solvent, contained either 2 mg/ml bupivacaine hydrochloride or 1 mg/ml concentration of the compounds listed in Table 2 of the present application. Each group consisted of 10 rats. A Von Frey fiber with a 100-gram force was attached to a needle for local skin stimulation. One minute after drug administration, the rat's response to the stimulus was measured. Testing was conducted at 6 different points within the marked area of drug administration. Skin contraction, avoidance, and other behaviors following stimulation were observed and recorded. Three points in the center and three points around the circle were stimulated, and the number of skin contraction and avoidance behaviors was recorded as N6. […] Each compound was tested on 10 rats.

[3] = 2 mg/ml, 5 ml/kg, single injection near the sciatic nerve of the rat, hot plate 50±0.1° C.

Row | SMILES | the rat died, time after administration ([1]; 2 mg/ml, 5 ml/kg, single injection near the sciatic nerve) | Duration/h ([1]; rat, in vivo) | Onset Time/min ([1]; rat, in vivo) | Duration/h [2] | Onset Time/min [2] | Duration/h [1, 3] | Onset Time/min [1, 3]
1 | CCCC[N+]1(CCOCCOc2ccccc2)CCCC[C@H]1C(=O)Nc1c(C)cccc1C (stereo partly drawn) [Comparative Example 1, (2S)-1-Butyl-2-((2,6-dimethylphenyl)carbamoyl)-1-(2-(2-phenoxyethoxy)ethyl)piperidine bromide, reference compound] | 1 (the rat died 4 h | 1 (the rat died 4 h | 2 min | – | – | – | –
2 | CCCC[N+]1(CCCCNc2ccccc2)CCCC[C@H]1C(=O)Nc1c(C)cccc1C (stereo partly drawn) [Compound of Example 1, (2S)-1-Butyl-2-((2,6-dimethylphenyl)carbamoyl)-1-(4-(phenylamino)butyl)piperidine bromide] | – | 24 to 48 h | 1 min | 48 to 72 h | 1 min | – | –
3 | CCCC[N+]1(CCCCNc2ccc(C)cc2)CCCC[C@H]1C(=O)Nc1c(C)cccc1C (stereo partly drawn) [Compound of Example 2, (2S)-1-Butyl-2-((2,6-dimethylphenyl)carbamoyl)-1-(4-(p-toluidino)butyl)piperidine bromide] | – | – | – | 72 to 96 h | 1 min | 48 to 72 h | 1 min
4 | CCCC[N+]1(CCCCOc2ccccc2)CCCC[C@H]1C(=O)Nc1c(C)cccc1C (stereo partly drawn) [Compound of Example 4, (2S)-1-Butyl-2-((2,6-dimethylphenyl)carbamoyl)-1-(4-(phenoxy)butyl)piperidine bromide] | – | 48 to 72 h | 1 min | 72 to 96 h | 1 min | – | –
5 | CCCC[N+]1(CCCCOc2cc(F)ccc2N)CCCC[C@H]1C(=O)Nc1c(C)cccc1C (stereo partly drawn) [Compound of Example 6, (2S)-1-(4-(2-amino-5-fluorophenoxy)butyl)-1-butyl-2-((2,6-dimethylphenyl)carbamoyl) piperidine bromide] | – | – | – | 48 to 72 h | 1 min | 24 to 48 h | 1 min
6 | CCCC[N+]1(CCCCCNc2ccccc2)CCCC[C@H]1C(=O)Nc1c(C)cccc1C (stereo partly drawn) [Compound of Example 7, (2S)-1-Butyl-2-((2,6-dimethylphenyl)carbamoyl)-1-(5-(phenylamino)pentyl)piperidine bromide] | – | 24 to 48 h | 2 min | 48 to 72 h | 2 min | – | –
7 | CCCC[N+]1(CCCCCN(C)c2ccccc2)CCCC[C@H]1C(=O)Nc1c(C)cccc1C (stereo partly drawn) [Compound of Example 8, (2S)-1-Butyl-2-((2,6-dimethylphenyl)carbamoyl)-1-(5-(methyl(phenyl)amino)pentyl)piperidine bromide] | – | – | – | 48 to 72 h | 1 min | 24 to 48 h | 1 min
8 | CCCC[N+]1(CCCCCNc2ccc(C)cc2)CCCC[C@H]1C(=O)Nc1c(C)cccc1C (stereo partly drawn) [Compound of Example 9, (2S)-1-Butyl-2-((2,6-dimethylphenyl)carbamoyl)-1-(5-(p-toluylamino)pentyl)piperidine bromide] | – | – | – | 48 to 72 h | 1 min | 24 to 48 h | 1 min
9 | CCCC[N+]1(CCCCCNc2ccc(F)cc2)CCCC[C@H]1C(=O)Nc1c(C)cccc1C (stereo partly drawn) [Compound of Example 10, (2S)-1-Butyl-2-((2,6-dimethylphenyl)carbamoyl)-1-(5-(p-fluorophenylamino)pentyl)piperidine bromide] | – | – | – | 48 to 72 h | 2 min | – | 2 min
10 | CCCC[N+]1(CCCCCN2CCn3ccnc3C2)CCCC[C@H]1C(=O)Nc1c(C)cccc1C (stereo partly drawn) [Compound of Example 11, (2S)-1-Butyl-1-(5-(5,6-dihydroimidazo[1,2-a]pyrazin-7(8H)-yl)pentyl)-2-((2,6-dimethylphenyl)carbamoyl)piperidine bromide] | – | – | – | 48 to 72 h | 1 min | 24 to 48 h | 1 min
11 | CCCC[N+]1(CCCCCN2CCn3cccc3C2C)CCCC[C@H]1C(=O)Nc1c(C)cccc1C (stereo partly drawn) [Compound of Example 12, (2S)-1-Butyl-2-((2,6-dimethylphenyl)carbamoyl)-1-(5(1-methyl-3,4-dihydropyrrolo[1,2-a]pyrazin-2(1H)-yl)pentyl)piperidine bromide] | – | – | – | 48 to 72 h | 1 min | 24 to 48 h | 1 min
12 | CCCC[N+]1(CCCCNc2c(C)cc(C)cc2C)CCCC[C@H]1C(=O)Nc1c(C)cccc1C (stereo partly drawn) [Compound of Example 19, (2S)-1-Butyl-2-((2,6-dimethylphenyl)carbamoyl)-1-(4-(symmetricaltrimethylamino)butyl)piperidine bromide] | – | – | – | – | – | 2 to 18 h | 2 min
13 | CCCC[N+]1(CCCCNc2ccc(Cl)cc2)CCCC[C@H]1C(=O)Nc1c(C)cccc1C (stereo partly drawn) [Compound of Example 20, (2S)-1-Butyl-1-(4-((4-chlorophenyl)amino)butyl)-2-((2,6-dimethylphenyl)carbamoyl)piperidine bromide] | – | 24 to 48 h | 1 min | – | – | – | –
14 | CCCC[N+]1(CCCCNc2ccc(F)c(F)c2)CCCC[C@H]1C(=O)Nc1c(C)cccc1C.[Br-] (stereo partly drawn) [Compound of Example 21, (2S)-1-Butyl-1-(4-((3,4-difluorophenyl)amino)butyl)-2-((2,6-dimethylphenyl)carbamoyl) piperidine bromide] | – | – | – | – | – | 19 to 24 h | 1 min
15 | CCCC[N+]1(CCCCOc2cc(C)ccc2C(C)C)CCCC[C@H]1C(=O)Nc1c(C)cccc1C (stereo partly drawn) [Compound of Example 23, (2S)-1-Butyl-2-((2,6-dimethylphenyl)carbamoyl)-1-(4-(2-isopropyl-5-methylphenoxy)butyl) piperidine bromide] | – | – | – | – | – | 48 to 72 h | 1 min
16 | CCCC[N+]1(CCCCOc2cccc(C)c2)CCCC[C@@H]1C(=O)Nc1c(C)cccc1C.[Cl-] (stereo partly drawn) [Compound of Example 29, (2R)-1-Butyl-2-((2,6-dimethylphenyl)carbamoyl)-1-(4-(m-tolyloxy)butyl)piperidine chloride] | – | – | – | – | – | 24 to 30 h | 1 min
17 | CCCC[N+]1(CCCOc2ccccc2)CCCC[C@H]1C(=O)Nc1c(C)cccc1C (stereo partly drawn) [Compound of Example 34, (2S)-1-Butyl-2-((2,6-dimethylphenyl)carbamoyl)-1-(3-phenoxypropyl)piperidine bromide] | – | 0 h | No effect observed | – | – | – | –
18 | CCCC[N+]1(CCCOc2cccc(C)c2)CCCC[C@H]1C(=O)Nc1c(C)cccc1C (stereo partly drawn) [Compound of Example 35, (2S)-1-Butyl-2-((2,6-dimethylphenyl)carbamoyl)-1-(3-(m-tolyloxy)propyl)piperidine bromide] | – | – | – | – | – | 0 h | No effect observed
19 | Cc1cccc(C)c1NC(=O)[C@@H]1CCCC[N+]1(CCCCOc1ccccc1)CC(C)C (stereo partly drawn) [Compound of Example 37, (2S)-1-(Isobutylmethyl)-2-((2,6-dimethylphenyl)carbamoyl)-1-(4-phenoxybutyl)piperidine bromide] | – | 2 to 18 h | 2 min | – | – | – | –
20 | CCCC[N+]1(CCCCOc2cccc(C)c2)CCCC[C@H]1C(=O)Nc1ccccc1C (stereo partly drawn) [Compound of Example 41, (2S)-1-Butyl-2-(o-tolylcarbamoyl)-1-(4-(m-tolyloxy)butyl)piperidinebromide] | – | 2 to 24 h | 2 min | – | – | – | –
21 | CCCC[N+]1(CCCCOc2cccc(C)c2)CCCC[C@H]1C(=O)Nc1c(CC)cccc1CC (stereo partly drawn) [Compound of Example 42, (2S)-1-Butyl-2-((2,6-diethylphenyl)carbamoyl)-1-(4-(m-tolyloxy)butyl)piperidine bromide] | – | 2 to 24 h | 2 min | – | – | – | –
22 | CCCC[N+]1(CCCCOc2ccc3cc(C(C)=O)ccc3c2)CCCC[C@H]1C(=O)Nc1c(C)cccc1C (stereo partly drawn) [Compound of Example 43, (2S)-1-(4-((6-acetylnaphth-2-yl)oxy)butyl)-1-butyl-2-((2,6-dimethylphenyl)carbamoyl) piperidine bromide] | – | – | – | – | – | 48 to 72 h | 1 min
